Earlier results on one molecule are cited in publication PMC9026148, “Pre-Clinical Study Evaluating Novel Protein Phosphatase 2A Activators as Therapeutics for Neuroblastoma” (Cancers, 2022).

The subject of the data set is CYP3A4. The arrangement: method as in PMID 32954276. Particulars: at 1 h, cited from earlier work.

As for `O=S(=O)(N[C@@H]1CCC[C@H](N2c3ccccc3Oc3ccccc32)[C@H]1O)c1ccc(OC(F)(F)F)cc1` [NZ-8-061], the “time-dependent inhibition of CYP3A4 (fold shift)” value is > 30 fold. Moreover, the IC50 (time-dependent inhibition) was < 1000 nM.
